What was measured:
[1] = Two-photon absorption cross section in DMSO, fluorescein as standard; format: physicochemical
Source text: In addition, IVP-02 emits redder fluorescence in solid state than that in solution. To testify the mechanism of the red shift in solid state of IVP-02, its crystal has been analyzed in FIGS. 2G and 2H. The molecules of IVP-02 are anti-parallelly stacked and form multimers in the crystalline state. The short intermolecular stacking distances of the multimers are 3.636 Å, 3.455 Å, 3.394 Å, 3.375 Å, 3.466 Å, and 3.465 Å, indicating strong intermolecular interactions inside the multimers. So the red-shift emission in solid state should be attributed to the intermolecular π-π interactions induced by the short contact between the molecules. […] The TPEF spectra of IVP-02 excited at different pulse wavelengths (780-900 nm) in DMSO were measured in FIG. 2F. The highest […] was 287 GM excited at 800 nm. Such high δ value is beneficial for two-photon imaging in live cells and deep tissues.

[2] = test system: mitochondria in HeLa and A549 cells; assay: Co-stain with mitochondrial probe MitoTracker Deep Red FM (MTDR); format: cell-based; settings: 2 μM dye, 0.2 μM MTDR, HeLa and A549
Protocol: FIG. 6 CLSM images of live HeLa and A549 cells stained with 2 μM IVP-02 and 0.2 μM MTDR, respectively. IVP-02: λex=488 nm, λem=500-650 nm; MTDR: λex=640 nm, λem=650-700 nm. Scale bar=20 μm.
In the above pictures, filamentous structures in cytoplasm of cancer cells were observed, which were typical morphology of mitochondria. Then co-stain experiments with commercial mitochondrial probe MitoTracker™ Deep Red FM (MTDR) were carried out (FIG. 6).
It was speculated that the membrane permeability of the probe was a key factor for its selectivity to cancer cells, since the plasma membrane of cancer cells was reported to be more permeable than normal cells. Consequently, IVP-02 was modified by lengthening the alkyl chain at the pyridine salt side and indole side, respectively, to tune the membrane permeability. The synthetic route to these new IVP molecules is depicted in Scheme 1. Their chemical structures were fully characterized by ^1H NMR, ^13C NMR, and ^19F NMR. Then cancer cells A549 were stained with the five new molecules, respectively. […] The co-stain experiments with MTDR also confirmed their location in mitochondria in A549 cells in FIG. 7C. In addition to A549 cells, the same experiments were also carried in HeLa cells (FIGS. 8 and 9).

[3] = Quantum yield in the solid state; format: physicochemical
Source text: IVPI-2 is able to stain mitochondria in healthy live cancer cells. However, when Δψm decreases, IVPI-2 migrates into nucleolus. Since IVPI-2 is target-changeable according to the change of mitochondrial physiology, the chemical structure of IVPI-2 was modified in order to enhance the mitochondria to nucleolus migration. Iodide ion is a well-known effective fluorescent quencher due to its heavy-atom effect. The quantum yield of IVP-02 in the solid state is 4.3%, which is about 3 times than that of IVPI-02 (1.3%). An Exemplary synthetic route to certain embodiments of the compounds described herein is depicted in Scheme 1.

A549 cells = assay: Cytotoxicity by standard MTT assay; format: cell-based, human; settings: summary statement
Protocol: FIG. 22 (A) Two-photon microscopy images of live HeLa cells stained with 2 μM IVP-02 for 30 min. λex=800 nm, λem=495-540 nm. Scale bar=20 μm. (B) Viability of A549 cells after incubation with IVP-02, 04, 06, 22, 42, and 62 at different concentrations for 24 h.
The potential long-term cytotoxicity of bioprobes should be carefully considered for imaging in live cells. Then we studied the cytotoxicity of these IVP molecules to live A549 cells by standard MTT assay. […] While the incubation concentration is 10 μM, the cell viability was between 60% and 80%, showing certain cytotoxicity. Nonetheless, all cell imaging experiments in this work were conducted at low concentration 2 μM, which is reasonable and acceptable.

[4] = test system: cancer cells (A549 and HeLa) co-cultured with normal cells (COS7 and HLF); assay: CLSM imaging of cancer cells co-cultured with normal cells; format: cell-based; settings: 30 min
Protocol: FIG. 5 CLSM images of live cancer cells (A549 and HeLa) co-cultured with normal cells (COS7 and HLF) (A), and the images of A549 and HLF cells seeded on different cover glasses (Scale bar=20 μm) (B) stained with 2 μM IVP-02 for 30 min (Scale bar=50 μm), respectively. λex=488 nm, λem=500-650 nm.
FIG. 10 CLSM images of live cancer cells (A549) co-cultured with normal cells (COS7) (A), and the images of A549 and HLF cells seeded on different cover glasses Scale bar=20 μm (B) stained with 2 μM IVP-02, 04, 06, 22, 42, and 62 for 30 min Scale bar=50 μm, respectively. (The first column in B is the same as FIG. 3B) λex=488 nm, λem=500-650 nm.
FIG. 11 CLSM images of live cancer cells (HeLa) co-cultured with normal cells (COS7), stained with 2 μM IVP-02, 04, 06, 22, 42, and 62 for 30 min, respectively. λex=488 nm, λem=500-650 nm. Scale bar=20 μm.
FIG. 12 CLSM images of live cancer cells (A549) co-cultured with normal cells (HLF), stained with 2 μM IVP-02, 04, 06, 22, 42, and 62 for 30 min, respectively. λex=488 nm, λem=500-650 nm. Scale bar=20 μm.
The bioimaging properties of IVP-02 in live cells were investigated by confocal laser scanning microscopy (CLSM). Cancer cells (A549 and HeLa) and normal cells (COS7 and HLF) were stained with IVP-02, respectively. […] So IVP-02 holds the high potential to differentiate cancer and normal cells. To verify this speculation, cancer and normal cells were co-cultured and stained with IVP-02. […] To precisely confirm the selectivity of IVP-02 to cancer cells, cancer cells A549 and normal cells HLF (A549 and HLF are both human lung cells) were seeded on different cover glasses, respectively. Then the two cover glasses were put in the same dish and stained with IVP-02 at the same time.
Cancer cells A549 co-cultured with normal cells COS7 were stained with these molecules, respectively. […] Then HeLa cells co-cultured with COS7 cells (FIG. 11), and A549 cells co-cultured with HLF cells (FIG. 12) were also stained with these molecules, the results were similar with that in A549 cells co-cultured with COS7 cells. In addition to co-culturing, A549 cells and HLF cells were also seeded on different cover glasses and stained with these molecules. […] Based on the imaging results above, it can be concluded that the selectivity of these IVP molecules to cancer cells is also based on the length of alkyl chain at pyridinium salt side. Lengthening the alkyl chain at the pyridinium salt side will eliminate the selectivity to cancer cells.

With `CC[n+]1ccc(/C=C/c2c[nH]c3ccccc23)cc1` [IVP-02] the “Two-photon absorption cross section (δ)” value ([1]; λex 780 nm) was 106 GM, the “Two-photon absorption cross section (δ)” value ([1]; λex 800 nm) was 287 GM and the “Two-photon absorption cross section (δ)” value ([1]; λex 820 nm) was 173 GM. The “Two-photon absorption cross section (δ)” value ([1]; λex 840 nm) was 194 GM, the “Two-photon absorption cross section (δ)” value ([1]; λex 860 nm) was 271 GM and the “Two-photon absorption cross section (δ)” value ([1]; λex 880 nm) was 227 GM. The “Two-photon absorption cross section (δ)” value ([1]; λex 900 nm) was 78 GM, the “co-localization coefficient with MTDR” value [2] was “around 0.9” and the quantum yield [3] was 4.3%. The “quantum yield relative to IVPI-02” value [3] was “about 3 times”, the cytotoxicity (A549 cells) was “low cytotoxicity” and the “staining of co-cultured cancer and normal cells” value ([4]; A549 and HeLa co-cultured with COS7 and HLF, 2 μM) was “only cancer cells (A549 and HeLa) were highly illuminated”. The “staining of co-cultured cancer and normal cells” value ([4]; A549 co-cultured with COS7, 2 μM) was “only stain A549 cells”.

From US11965100B2, “Aggregation-induced emission luminogens useful for cancer cell discrimination and monitoring” (The Hong Kong University of Science and Technology, priority 2020, dated 2024)
